Test results as given in ChEMBL document CHEMBL1201862, “PubChem BioAssay data set” (2004).
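These data come from cells grown in 96-well plates and exposed to compound for 48 hours at five concentrations. GI50 = concentration required for 50% inhibition of growth.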 Activity calls are given as the source filed them. No stated cut-off is given here; in the data, active = GI50 up to about 1.1 µM and inactive = higher.

Experiments:
Experiment in all cases: DTP human tumour cell line panel, 48 h
A549 = system: A549
BT-549 = system: BT-549
DU-145 = system: DU-145
HCC 2998 = system: HCC 2998
HCT-116 = system: HCT-116
HCT-15 = system: HCT-15
IGROV-1 = system: IGROV-1
M14 = system: M14
MDA-N = system: MDA-N
Malme-3M = system: Malme-3M
OVCAR-3 = system: OVCAR-3
PC-3 = system: PC-3
RXF 393 = system: RXF 393
SK-MEL-28 = system: SK-MEL-28
SK-MEL-2 = system: SK-MEL-2
SNB-75 = system: SNB-75
MOLT-4 = system: MOLT-4
OVCAR-8 = system: OVCAR-8
SF-268 = system: SF-268
NCI-H226 = system: NCI-H226

Compound | GI50 (A549) | GI50 (BT-549) | GI50 (DU-145) | GI50 (HCC 2998) | GI50 (HCT-116) | GI50 (HCT-15) | GI50 (IGROV-1) | GI50 (M14) | GI50 (MDA-N) | GI50 (Malme-3M) | GI50 (OVCAR-3) | GI50 (PC-3) | GI50 (RXF 393) | GI50 (SK-MEL-28) | GI50 (SK-MEL-2) | GI50 (SNB-75) | GI50 (MOLT-4) | GI50 (OVCAR-8) | GI50 (SF-268) | GI50 (NCI-H226)
Cl/C(=N\c1cccc2ccccc12)N(c1ccccc1)c1ccccc1 | 56.5 µM (inactive) | > 100 µM (inactive) | > 100 µM (inactive) | 19.7 µM (inactive) | 73.5 µM (inactive) | > 100 µM | > 100 µM (inactive) | 43 µM (inactive) | 52 µM (inactive) | 39 µM (inactive) | 60.1 µM (inactive) | 44.6 µM (inactive) | > 100 µM (inactive) | > 100 µM (inactive) | > 100 µM (inactive) | > 100 µM (inactive) | – | – | – | –
CCCC(=O)OC(OC(=O)CCC)c1ccc([N+](=O)[O-])o1 | > 100 µM (inactive) | 47.2 µM (inactive) | 36.7 µM (inactive) | 15.9 µM (inactive) | 16.9 µM (inactive) | 15.7 µM | 14.8 µM (inactive) | 19.8 µM (inactive) | 20.1 µM (inactive) | 19.2 µM (inactive) | 20.9 µM (inactive) | 61.7 µM (inactive) | 17.2 µM (inactive) | 20.4 µM (inactive) | 22.8 µM (inactive) | > 100 µM (inactive) | 31.1 µM (inactive) | 32.2 µM (inactive) | 65.6 µM (inactive) | –
c1ccc(/C(=N/Nc2ccncn2)c2ccccn2)cc1 | 30.4 µM (inactive) | 35.1 µM (inactive) | 34.6 µM (inactive) | > 100 µM (inactive) | 14.3 µM (inactive) | 24.4 µM | 17 µM (inactive) | 10.3 µM (inactive) | 58.5 µM (inactive) | – | 6.78 µM (inactive) | 36.5 µM (inactive) | 34.3 µM (inactive) | 70.3 µM (inactive) | 44.8 µM (inactive) | 18.9 µM (inactive) | 3.47 µM (inactive) | 16.6 µM (inactive) | 15.9 µM (inactive) | 15.8 µM (inactive)
CC(=O)c1c(C)n(C)c2c1nnc1ccccc12 | 32.2 µM (inactive) | 71.3 µM (inactive) | 80.5 µM (inactive) | 85.5 µM (inactive) | 33.7 µM (inactive) | 42.1 µM | – | 67.8 µM (inactive) | 67.9 µM (inactive) | 39.5 µM (inactive) | > 100 µM (inactive) | 59.3 µM (inactive) | 40.2 µM (inactive) | > 100 µM (inactive) | > 100 µM (inactive) | – | – | 43.5 µM (inactive) | 34.1 µM (inactive) | 31.6 µM (inactive)
CCCCCCCCCCCCc1ccsc1-c1ccc(-c2ccc(-c3sccc3CCCCCCCCCCCC)s2)s1 | > 100 µM (inactive) | > 100 µM (inactive) | > 100 µM (inactive) | > 100 µM (inactive) | > 100 µM (inactive) | > 100 µM | > 100 µM (inactive) | > 100 µM (inactive) | > 100 µM (inactive) | – | > 100 µM (inactive) | > 100 µM (inactive) | > 100 µM (inactive) | > 100 µM (inactive) | > 100 µM (inactive) | > 100 µM (inactive) | > 100 µM (inactive) | > 100 µM (inactive) | > 100 µM (inactive) | > 100 µM (inactive)
COc1ccc(C[n+]2cccc(O)c2)cc1 | > 100 µM (inactive) | > 100 µM (inactive) | > 100 µM (inactive) | > 100 µM (inactive) | > 100 µM (inactive) | > 10 µM | > 100 µM (inactive) | > 100 µM (inactive) | > 100 µM (inactive) | > 100 µM (inactive) | > 100 µM (inactive) | > 100 µM (inactive) | > 100 µM (inactive) | > 100 µM (inactive) | > 100 µM (inactive) | – | > 100 µM (inactive) | > 100 µM (inactive) | > 100 µM (inactive) | > 100 µM (inactive)
CCOP(=O)(OCC)c1cc(-c2ccccc2)ccc1N | > 100 µM (inactive) | > 100 µM (inactive) | > 100 µM (inactive) | > 100 µM (inactive) | 66.5 µM (inactive) | > 100 µM | > 100 µM (inactive) | > 100 µM (inactive) | > 100 µM (inactive) | > 100 µM (inactive) | > 100 µM (inactive) | > 100 µM (inactive) | 33 µM (inactive) | > 100 µM (inactive) | > 100 µM (inactive) | 81.7 µM (inactive) | > 100 µM (inactive) | > 100 µM (inactive) | > 100 µM (inactive) | –
O=C1/C(=C\c2ccccc2)C(NC2CCCCC2)c2ccccc21 (configuration not stated) | 4.05 µM (inactive) | 2.36 µM (inactive) | 1.53 µM (inactive) | – | 0.959 µM (active) | 2.15 µM | 2.99 µM (inactive) | 1.54 µM (inactive) | 1.43 µM (inactive) | 1.46 µM (inactive) | 1.24 µM (inactive) | 1.78 µM (inactive) | 1.56 µM (inactive) | 2.54 µM (inactive) | 2.24 µM (inactive) | 2.17 µM (inactive) | 0.817 µM (active) | 2.12 µM (inactive) | 3.46 µM (inactive) | 6.24 µM (inactive)
